{"source": "patent US20140243422A1", "about": "“METHODS OF TREATING BEHAVIORAL AND PSYCHIATRIC DISORDERS” (ELAN PHARMACEUTICALS, INC., priority 2011, published 2014)", "key": {"myo-inositol": {"tested_on": "myo-inositol", "details": "transgenic mice, Choi et al. 2010; cited from earlier work"}, "[1]": {"tested_on": "myo-inositol brain levels", "test": "Phase 2 trial: brain myo-inositol and scyllo-inositol levels by magnetic resonance spectroscopy (MRS)", "format": "in vivo, human", "protocol": "(§1) In a Phase 2, parallel arm, dose-ranging, placebo-controlled, double-blind, multicenter trial in patients with mild to moderate AD (MMSE 16-26), scyllo-inositol was administered to study subjects in immediate release tablets twice daily at the dosage level set for each study arm or identical-appearing placebo tablets were administered in the control arm. […] The study included neuropsychological assessments using the NPI-12 item scale, as well as assessments of scyllo-Inositol (SI) and myo-inositol (MI) brain levels using magnetic resonance spectroscopy (MRS).\nThe maximal myo-inositol reduction measured at the 3 studied doses was 44%, 66% and 60% at the 250 mg, 1000 mg, and 2000 mg bid doses, respectively."}, "[2]": {"tested_on": "patients with mild to moderate AD (MMSE 16-26)", "test": "Phase 2 placebo-controlled trial: cognitive and functional outcome measures (NTB, ADCS-ADL, CDR-SB)", "format": "in vivo, human", "protocol": "as §1\nStudy drug was administered as placebo or one of 3 doses of scyllo-inositol (SI): 250 mg, 1000 mg and 2000 mg, each dose given twice daily (bid) as capsules of either 250 mg or 1000 mg.\n(§2) The present study was a dose ranging study in Mild and Moderate AD patients (defined as having MMSE scores of 16-26 inclusive), and included 3 doses of scyllo-insoitol given bid (250 mg, 1000 mg, and 2000 mg) and placebo. The study was of 78 weeks duration and enrolled a total of 353 patients, and 351 received study drug (safety population). Due to safety findings in the 2 highest dose groups, these 2 groups were discontinued and the study's final efficacy analysis was based only on the 250 mg and placebo groups. The primary efficacy analysis was based on the overall population (mild and moderate), but the statistical analysis plan (SAP) Included subgroup analyses by disease severity, and defined Mild as patients with MMSE 23-26 and Moderate 16-22 inclusive. In the overall study population, total randomized to all 4 dose groups=353, total that received study drug=351 (safety population, at any dose). For placebo and 250 mg group, the overall m-ITT (modified intent-to-treat)=166, overall PPS (per protocol set)=96.\nValues for all clinical outcome measures were calculated so that a positive change from baseline indicates improvement, and a positive difference from placebo indicates drug benefit.\nA sensitivity analysis was performed post-hoc using a wider definition of the Mild sub-group (MMSE: 22-26 inclusive) with a larger sample size. In this sensitivity analysis, the positive effect of the 250 mg on the NTB score approached a significant trend (p<0.1) in the m-ITT analysis (Table 3), and was significant (p<0.05) in the PP analysis (data on file). […] On this basis, all further analyses shown here are defined in the Mild and Moderate subgroups as patients having MMSE scores between 22-26 (Mild) and 16-21 (Moderate) inclusive."}, "[3]": {"tested_on": "patients with mild to moderate AD (MMSE 16-26)", "test": "Phase 2 trial: safety and tolerability", "format": "in vivo, human", "details": "250 mg bid, elderly study population", "protocol": "as §2\nIn summary, scyllo-inositol exposures ≧1000 mg bid provide less cognitive and functional benefit than the 250 mg bid dose. These high exposures may be associated with an increase in neuropsychiatric adverse events."}, "CSF Abeta42": {"tested_on": "CSF Abeta42", "test": "Phase 2 trial: cerebrospinal fluid Abeta42", "format": "in vivo, human", "details": "250 mg bid; statistically significant", "protocol": "The effect of the 250 mg dose on cerebrospinal fluid (CSF) Abeta42 reduction (˜27% compared to baseline) was statistically significant, but the higher doses seemed to provide further Abeta42 reduction. Despite the dose-dependent effects of scyllo-inositol on CSF Abeta42, the 2 high doses consistently produced smaller effects on clinical endpoints than the 250 mg dose. This observed dissociation between the dose-dependent effects on CSF Abeta42 and the clinically measured NPI outcomes supports the concept that scyllo Inositol clinical effects are mediated by two distinct mechanisms. These mechanisms include: 1. reduction of brain amyloid load and resulting synaptic toxicity which has previously been disclosed affect memory and reasoning/problem solving, but not NPS, and 2. down-regulation of brain myo-inositol levels with secondary salutary effects on neuronal function (Machado-Vieira et al. 2009). The only other MRS studies measuring in vivo brain levels of myo-inositol and scyllo-inositol after scyllo-inositol administration were in transgenic mice. (Choi, et al. 2010, Neuropharmacology, 59(4-5): 353-357). […] The details of the Phase 2 data are described below."}, "amyloid β-peptide": {"tested_on": "amyloid β-peptide", "details": "given orally, transgenic mouse model of AD; cited from earlier work"}, "[4]": {"details": "250 mg bid, Mild MMSE 22-26 (post-hoc), m-ITT"}, "[5]": {"details": "250 mg bid, Mild MMSE 22-26, m-ITT"}, "[6]": {"details": "250 mg bid, Mild MMSE 23-26, PPS"}, "[7]": {"details": "250 mg bid, Mild MMSE 23-26, m-ITT"}, "[8]": {"details": "250 mg bid, Mild MMSE 23-26, m-ITT, week 78, positive = drug benefit"}}}
{"smiles": "O[C@H]1[C@H](O)[C@@H](O)[C@H](O)[C@@H](O)[C@@H]1O", "note": "[scyllo-inositol]", "values": [{"measurement": "myo-inositol reductions in frontal cortex and hippocampus (MRS)", "setting": "myo-inositol", "value": "rather modest non significant myo-inositol reductions"}, {"measurement": "maximal myo-inositol reduction in brain (MRS)", "setting": "[1]; 250 mg bid, maximal at about 48 to about 78 weeks", "value": 44, "unit": "%"}, {"measurement": "maximal myo-inositol reduction in brain (MRS)", "setting": "[1]; 1000 mg bid", "value": 66, "unit": "%"}, {"measurement": "maximal decrease of myo-inositol levels", "setting": "[1]; 1000 mg bid and 2000 mg bid", "value": "60-66%"}, {"measurement": "maximal myo-inositol reduction in brain (MRS)", "setting": "[1]; 2000 mg bid", "value": 60, "unit": "%"}, {"measurement": "brain scyllo-inositol level by MRS", "setting": "[1]; 250, 1000, 2000 mg bid", "value": "dose-dependent increase"}, {"measurement": "ADCS-DL drug-placebo difference", "setting": "[2]; [4]", "value": 3.15}, {"measurement": "CDR-SB drug-placebo difference", "setting": "[2]; [4]", "value": 0.97}, {"measurement": "NTB drug-placebo difference", "setting": "[2]; [4]", "value": 0.2}, {"measurement": "ADCS-DL % effect compared to placebo", "setting": "[2]; [5]", "value": 42, "unit": "%"}, {"measurement": "CDR-SB % effect compared to placebo", "setting": "[2]; [5]", "value": 42, "unit": "%"}, {"measurement": "NTB % effect compared to placebo", "setting": "[2]; [5]", "value": 75, "unit": "%"}, {"measurement": "ADCS-ADL % effect compared to placebo", "setting": "[2]; [6]", "value": 31, "unit": "%"}, {"measurement": "ADCS-ADL drug-placebo difference", "setting": "[2]; [6]", "value": 2.25}, {"measurement": "CDR-SB % effect compared to placebo", "setting": "[2]; [6]", "value": 44, "unit": "%"}, {"measurement": "CDR-SB drug-placebo difference", "setting": "[2]; [6]", "value": 0.95}, {"measurement": "NTB % effect compared to placebo", "setting": "[2]; [6]", "value": 100, "unit": "%"}, {"measurement": "NTB drug-placebo difference", "setting": "[2]; [6]", "value": 0.4}, {"measurement": "ADCS-ADL % effect compared to placebo", "setting": "[2]; [7]", "value": 35, "unit": "%"}, {"measurement": "CDR-SB % effect compared to placebo", "setting": "[2]; [7]", "value": 40, "unit": "%"}, {"measurement": "NTB % effect compared to placebo", "setting": "[2]; [7]", "value": 72, "unit": "%"}, {"measurement": "ADCS-ADL drug-placebo difference", "setting": "[2]; [8]", "value": 2.26}, {"measurement": "CDR-SB drug-placebo difference", "setting": "[2]; [8]", "value": 0.87}, {"measurement": "NTB drug-placebo difference", "setting": "[2]; [8]", "value": 0.2}, {"measurement": "magnitude of the 250 mg effect on the NTB", "setting": "[2]; 250 mg bid, overall mild and moderate population, per protocol subjects, week 78, not statistically significant", "value": 0.15}, {"measurement": "NTB benefit compared to placebo", "setting": "[2]; 250 mg bid, overall population, per protocol subjects, week 78", "value": 40, "unit": "%"}, {"measurement": "benefit on co-primary cognitive and functional endpoints (NTB and ADCS-ADL)", "setting": "[2]; overall Mild and Moderate population", "value": "no statistically significant benefit"}, {"measurement": "safety and CNS tolerability", "setting": "[3]", "value": "acceptable safety and good CNS tolerability"}, {"measurement": "CSF Abeta42 reduction compared to baseline", "setting": "CSF Abeta42", "value": 27, "unit": "%"}, {"measurement": "aggregation of amyloid β-peptide in the brain", "setting": "amyloid β-peptide", "value": "inhibits aggregation of amyloid β-peptide in the brain"}]}
